Reference: patent publication US12544373B2, “Treatment of cancer, inflammatory diseases and autoimmune diseases” (Usher III Initiative, Inc., priority 2020, dated 2026)
pIC50: −log10 of the molar value. Like-named read-outs stand apart in the source and are kept apart here.

What was measured:
Format in all cases: cell-based, human
MAXFHER JIMT-1 = assay: CellTiter-Blue Cell Viability Assay (Example 2), breast; details: for T/C %: 72 h
From the text: (§1) The CellTiter-Blue® Cell Viability Assay was used to assess the viability of cells from various cancer cell lines, in the presence or absence of Compound 85 (at different concentrations). This assay provides a homogeneous, fluorometric method for estimating the number of viable cells present in multi-well plates. Viable cells retain the ability to reduce resazurin to resorufin, which is highly fluorescent. […] The fluorescence produced is proportional to the number of viable cells. There is a linear relationship between cell number and fluorescence.
(§2) Cancer cells (see Table 6) were harvested from exponential phase cultures, counted and plated in 96 well flat-bottom microtiter plates, at a cell density 6,000-20,000 cells/well, depending on the cell line's growth rate. The culture medium was supplemented with 10% (v/v) foetal calf serum and 50 μg/mL gentamicin (140 μL/well). Cultures were incubated at 37° C. and 5% CO2 in a humidified atmosphere.
(§3) Compound 85 was serially diluted in DMSO, and five Compound 85 concentrations in half-log increments were used: 0.03 μM, 0.09 μM, 0.30 μM, 1.0 μM, and 3.0 μM. After 24 h, 10 μL of Compound 85 (dissolved in DMSO) or control (DMSO) medium were added, in duplicates, and left on the cells for another 72 h. Compound 85 solutions were added to the assay plates using a Tecan Freedom EVO 200 robotic platform. The DMSO concentration was kept constant at 0.3% v/v across the assay plate.
(§4) After incubation of up to 72 hours, fluorescence (FU) was measured using the EnSpire® multimode plate reader (Perkin Elmer) (excitation λ=570 nm, emission λ=600 nm).
(§5) Cancer cell lines used: Compound 85's anti-cancer effect was tested in 20 human cancer-cell lines representing nine cancer types (Table 6).
(§6) The percentage of viable cells in the presence of Compound 85 (Test condition, T), at different concentrations, are presented in Table 7 and expressed as a percentage of the number of viable cells in the presence of DMSO without Compound 85 (Control condition, C).
(§7) The relative IC50 is determined as the Compound 85 concentration giving a response halfway between the maximum cell viability signal (i.e., a 100% cell viability, no Compound 85 response) and the minimal viability signal (i.e. maximum cell viability inhibition achieved by Compound 85), in a sigmoidal concentration-effect curve.
(§8) The absolute IC50 is determined as the concentration that is associated with a T/C ratio of 50%.

MAXFTN MDA-MB-453 = assay: as above; details: for T/C %: 72 h
From the text: as §1, §2, §3, §4, §5, §6, §7, §8

MAXFTN 401 = assay: as above; details: for T/C %: 72 h
From the text: as §1, §2, §3, §4, §5, §6, §7, §8

MAXFHER BT-474 = assay: as above; details: for T/C %: 72 h
From the text: as §1, §2, §3, §4, §5, §6, §7, §8

CXF LS 174T = assay: CellTiter-Blue 2D monolayer assay (Example 1), colon; details: for Test/Control (%): 72 h
Procedure: (§9) Compound 85 was assessed in 10 human tumor cell lines (see Table 3) for anti-cancer activity in vitro using a CellTiter-Blue® based 2D monolayer assay.
(§10) CellTiter-Blue® Cell Viability Assay: Tumor cells were grown at 37° C. in a humidified atmosphere with 5% CO2 in RPMI medium, supplemented with 10% (v/v) fetal calf serum and 50 μg/ml gentamicin (140 μl/well). Cultures were incubated at 37° C. and 5% CO2 in a humidified atmosphere. After 24 hours, 10 μl of Compound 85 was added, and left on the cells for another 72 hours (incubation period). Compound 85 was tested at 5 concentrations (0.003 μM, 0.03 μM, 0.3 μM, 3 μM, and 30 μM) and serially diluted in DMSO, mixed with cell culture medium, and added to the assay plates by using a Tecan Freedom EVO 200 robotic platform. The DMSO concentration was kept constant at 0.3% yip across the assay plate. Every 96 well plate included six DMSO-treated control wells and Compound 85-treated wells in duplicate at 5 concentrations. Viability of cells was quantified using the CellTiter-Blue® cell viability assay (Promega G8081). After incubation of cells, the CellTiter-Blue® reagent was brought to ambient temperature. Next, 20 μl of CellTiter-Blue® reagent were added to each well. After incubation tier up to 4 hours, fluorescence (FU) was measured using the EnSpire® multimode plate reader (Perkin Elmer) ([…]).
(§11) Data Evaluation: Sigmoidal concentration-response curves were fitted to the data points (test-versus-control; T/C values) obtained for each tumor model using 4 parameter non-linear curve fit (Charles River DRS Datawarehouse Software). Drug effects are expressed in terms of the percentage of the fluorescence signal, obtained by comparison of the mean signal in the treated wells with the mean signal of the untreated controls (T/C-value [%]) (Table 4). IC50 and IC70 values were reported as relative and absolute IC50 and IC70 values (Table 5). The absolute IC50 and IC70 values reflect the concentration of Compound 85 that achieves T/C=50% and T/C=30%, respectively. The relative IC50 value is the concentration of Compound 85 that gives a response half way between the top and bottom plateau of the sigmoidal concentration-response curve (inflection point of the curve).

CXF HCC-2998 = assay: as above; details: for Test/Control (%): 72 h
Procedure: as §9, §10, §11

## CC(C)(O)Cn1nc(-c2ccccc2)c2c(Cl)c(-c3ccccc3)nnc21 [Compound 85]
MAXFHER JIMT-1
  Absolute IC70: 957 nM
  Relative IC70: 844 nM
MAXFHER JIMT-1; 0.03 μM
  T/C %: 97%
MAXFHER JIMT-1; 0.095 μM
  T/C %: 97%
MAXFHER JIMT-1; 0.3 μM
  T/C %: 96%
MAXFHER JIMT-1; 0.95 μM
  T/C %: 30%
MAXFHER JIMT-1; 3.0 μM
  T/C %: 14%
MAXFHER JIMT-1; read-out: Absolute IC50
  pIC50: 6.13
MAXFHER JIMT-1; read-out: Relative IC50
  pIC50: 6.15
MAXFTN MDA-MB-453
  Absolute IC70: 765 nM
  Relative IC70: 763 nM
MAXFTN MDA-MB-453; 0.03 μM
  T/C %: 101%
MAXFTN MDA-MB-453; 0.095 μM
  T/C %: 97%
MAXFTN MDA-MB-453; 0.3 μM
  T/C %: 101%
MAXFTN MDA-MB-453; 0.95 μM
  T/C %: 3%
MAXFTN MDA-MB-453; 3.0 μM
  T/C %: 1%
MAXFTN MDA-MB-453; read-out: Absolute IC50
  pIC50: 6.14
MAXFTN MDA-MB-453; read-out: Relative IC50
  pIC50: 6.14
MAXFTN 401
  Absolute IC70: 503 nM
  Relative IC70: 500 nM
MAXFTN 401; 0.03 μM
  T/C %: 99%
MAXFTN 401; 0.095 μM
  T/C %: 99%
MAXFTN 401; 0.3 μM
  T/C %: 87%
MAXFTN 401; 0.95 μM
  T/C %: 3%
MAXFTN 401; 3.0 μM
  T/C %: 1%
MAXFTN 401; read-out: Absolute IC50
  pIC50: 6.37
MAXFTN 401; read-out: Relative IC50
  pIC50: 6.37
MAXFHER BT-474
  Absolute IC70: 1316 nM
  Relative IC70: 1010 nM
MAXFHER BT-474; 0.3 μM
  T/C %: 99%
MAXFHER BT-474; 0.95 μM
  T/C %: 46%
MAXFHER BT-474; 3.0 μM
  T/C %: 17%
MAXFHER BT-474; read-out: Absolute IC50
  pIC50: 6.05
MAXFHER BT-474; read-out: Relative IC50
  pIC50: 6.12
CXF LS 174T
  Rel. IC70: 328 nM
CXF LS 174T; 0.003 μM
  Test/Control (%): 103%
CXF LS 174T; 0.03 μM
  Test/Control (%): 101%
CXF LS 174T; 0.3 μM
  Test/Control (%): 35%
CXF LS 174T; 3 μM
  Test/Control (%): 4%
CXF LS 174T; 30 μM
  Test/Control (%): 0%
CXF LS 174T; T/C=30%
  Abs. IC70: 346 nM
CXF LS 174T; T/C=50%, read-out: Abs. IC50
  pIC50: 6.67
CXF LS 174T; bottom plateau of curve
  Bot. (%): 1%
CXF LS 174T; read-out: Rel. IC50
  pIC50: 6.69
CXF LS 174T; top plateau of curve
  Top (%): 103%
CXF HCC-2998
  Rel. IC70: 1630 nM
CXF HCC-2998; 0.003 μM
  Test/Control (%): 97%
CXF HCC-2998; 0.03 μM
  Test/Control (%): 100%
CXF HCC-2998; 0.3 μM
  Test/Control (%): 90%
CXF HCC-2998; 3 μM
  Test/Control (%): 13%
CXF HCC-2998; 30 μM
  Test/Control (%): 1%
CXF HCC-2998; T/C=30%
  Abs. IC70: 1628 nM
CXF HCC-2998; T/C=50%, read-out: Abs. IC50
  pIC50: 5.99
CXF HCC-2998; bottom plateau of curve
  Bot. (%): 1%
CXF HCC-2998; read-out: Rel. IC50
  pIC50: 5.99
CXF HCC-2998; top plateau of curve
  Top (%): 99%
